Data from BigSolDB 2.1.

Cn1c(=O)cc(N2CCC[C@@H](N)C2)n(Cc2ccccc2C#N)c1=O.O=C(O)c1ccccc1
solubility (mole fraction)
Settings | 278.15 K | 283.15 K | 288.15 K | 293.15 K | 298.15 K | 303.15 K | 308.15 K | 313.15 K | 318.15 K
in DMF | 0.00568 | 0.00686 | 0.00824 | 0.00984 | 0.0117 | 0.0138 | 0.0162 | 0.019 | 0.0222
in acetone | 0.00259 | 0.00293 | 0.00331 | 0.00373 | 0.00419 | 0.0047 | 0.00525 | 0.00587 | 0.00654
in acetonitrile | 0.000102 | 0.000145 | 0.000175 | 0.000228 | 0.000292 | 0.000368 | 0.000475 | 0.000583 | 0.000725
in ethanol | 0.000355 | 0.000447 | 0.000554 | 0.000682 | 0.000822 | 0.00102 | 0.00122 | 0.00147 | 0.00176
in isopropanol | 1.9e-05 | 3e-05 | 4.2e-05 | 6.3e-05 | 8.8e-05 | 0.000127 | 0.000175 | 0.000244 | 0.000334
in methanol | 0.00239 | 0.00269 | 0.00302 | 0.00339 | 0.00379 | 0.00423 | 0.00472 | 0.00525 | 0.00583
in n-propanol | 6.1e-05 | 8.2e-05 | 0.000113 | 0.000156 | 0.000209 | 0.000278 | 0.000367 | 0.000477 | 0.000621
in water | 0.000838 | 0.000915 | 0.000999 | 0.00109 | 0.00119 | 0.00129 | 0.0014 | 0.00153 | 0.00166
